System: NCI-H322M multicellular tumor spheroids, viability (% test/control)
Test: Anticancer human tumor NCI-H322M cell line growth inhibition;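 as to viability, T/C: spheroids exposed to compound for seven days before readout; 100% = DMSO vehicle control wells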
Conditions: for IC50: curve of first compound; for viability, T/C: stronger effect = lower value
Method in brief: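 Complex spheroids of malignant cells with endothelial cells and mesenchymal stem cells; agents alone or combined, from near clinical Cmax (or 10 microM if unknown) down in half-log steps, 0.25% DMSO final.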

[1] = second compound 0.003 µM, first compound 0.0316 µM
[2] = second compound 0.003 µM, first compound 0.1 µM
[3] = second compound 0.003 µM, first compound 0.316 µM
[4] = second compound 0.003 µM, first compound 1 µM
[5] = second compound 0.003 µM, first compound 3.16 µM
[6] = second compound 0.003 µM, first compound 10 µM
[7] = second compound 0.00949 µM, first compound 0.0316 µM
[8] = second compound 0.00949 µM, first compound 0.1 µM
[9] = second compound 0.00949 µM, first compound 0.316 µM
[10] = second compound 0.00949 µM, first compound 1 µM
[11] = second compound 0.00949 µM, first compound 3.16 µM
[12] = second compound 0.00949 µM, first compound 10 µM
[13] = second compound 0.03 µM, first compound 0.0316 µM
[14] = second compound 0.03 µM, first compound 0.1 µM
[15] = second compound 0.03 µM, first compound 0.316 µM
[16] = second compound 0.03 µM, first compound 1 µM
[17] = second compound 0.03 µM, first compound 3.16 µM
[18] = second compound 0.03 µM, first compound 10 µM
[19] = second compound 0.0949 µM, first compound 0.0316 µM
[20] = second compound 0.0949 µM, first compound 0.1 µM
[21] = second compound 0.0949 µM, first compound 0.316 µM
[22] = second compound 0.0949 µM, first compound 1 µM
[23] = second compound 0.0949 µM, first compound 3.16 µM
[24] = second compound 0.0949 µM, first compound 10 µM
[25] = second compound 0.3 µM, first compound 0.0316 µM
[26] = second compound 0.3 µM, first compound 0.1 µM
[27] = second compound 0.3 µM, first compound 0.316 µM
[28] = second compound 0.3 µM, first compound 1 µM
[29] = second compound 0.3 µM, first compound 3.16 µM
[30] = second compound 0.3 µM, first compound 10 µM

SMILES	IC50 (second compound 0.003 µM)	IC50 (second compound 0.00949 µM)	IC50 (second compound 0.03 µM)	IC50 (second compound 0.0949 µM)	IC50 (second compound 0.3 µM)	viability, T/C [1]	viability, T/C [2]	viability, T/C [3]	viability, T/C [4]	viability, T/C [5]	viability, T/C [6]	viability, T/C [7]	viability, T/C [8]	viability, T/C [9]	viability, T/C [10]	viability, T/C [11]	viability, T/C [12]	viability, T/C [13]	viability, T/C [14]	viability, T/C [15]	also measured
COc1cc(C)[nH]c(=O)c1CN1CCc2c(Cl)cc(C(OC)C3COC3)c(Cl)c2C1=O (stereo not given) + CC[C@@]1(O)C(=O)OCc2c1cc1n(c2=O)Cc2cc3c(CN(C)C)c(O)ccc3nc2-1	> 10 µM	> 10 µM	> 10 µM	> 10 µM	9.8 µM	79.2%	75.4%	74.4%	73.1%	84.3%	88%	83.9%	65.2%	65.2%	74%	78.6%	89.6%	69%	68.8%	72.8%	viability, T/C [16]: 69.3%; viability, T/C [17]: 73.4%; viability, T/C [18]: 71.7%; viability, T/C [19]: 72%; viability, T/C [20]: 66.9%; viability, T/C [21]: 70.8%; viability, T/C [22]: 58.1%; viability, T/C [23]: 65.4%; viability, T/C [24]: 71.2%; viability, T/C [25]: 60.5%; viability, T/C [26]: 49.9%; viability, T/C [27]: 48.5%; viability, T/C [28]: 48.5%; viability, T/C [29]: 54.9%; viability, T/C [30]: 50.3%
COc1ccc([C@@H](O)c2cc(-c3ncnc4cc(N5CCOCC5)ccc34)c(F)cc2Cl)nn1 + CC[C@@]1(O)C(=O)OCc2c1cc1n(c2=O)Cc2cc3c(CN(C)C)c(O)ccc3nc2-1	1.67 µM	1.36 µM	1.05 µM	0.721 µM	0.384 µM	79.4%	88.7%	91.2%	59.2%	45%	32.2%	80.8%	75.8%	79.7%	52.5%	45.4%	32.2%	72.5%	80.1%	61.8%	viability, T/C [16]: 51.8%; viability, T/C [17]: 37.2%; viability, T/C [18]: 30.2%; viability, T/C [19]: 76.5%; viability, T/C [20]: 61.7%; viability, T/C [21]: 61.9%; viability, T/C [22]: 46.3%; viability, T/C [23]: 36.1%; viability, T/C [24]: 29.8%; viability, T/C [25]: 56.4%; viability, T/C [26]: 54.4%; viability, T/C [27]: 52.7%; viability, T/C [28]: 37.6%; viability, T/C [29]: 26%; viability, T/C [30]: 24.4%
[2H]c1nc(C)nc([2H])c1-c1cc(NC[C@@H](C)c2cccc3c(C(=O)NC)ccnc23)ncn1 + CC[C@@]1(O)C(=O)OCc2c1cc1n(c2=O)Cc2cc3c(CN(C)C)c(O)ccc3nc2-1	> 10 µM	> 10 µM	> 10 µM	> 10 µM	> 10 µM	91.8%	128%	94.1%	84.1%	112%	103%	86.6%	89.9%	105%	89.9%	89.8%	117%	77.2%	75.5%	76.7%	viability, T/C [16]: 82.9%; viability, T/C [17]: 114%; viability, T/C [18]: 103%; viability, T/C [19]: 80.6%; viability, T/C [20]: 80.7%; viability, T/C [21]: 78.3%; viability, T/C [22]: 74.5%; viability, T/C [23]: 72.5%; viability, T/C [24]: 85.5%; viability, T/C [25]: 72.2%; viability, T/C [26]: 59%; viability, T/C [27]: 60.2%; viability, T/C [28]: 60.3%; viability, T/C [29]: 62.2%; viability, T/C [30]: 64.9%

From PubChem BioAssay AID1845211 (Molecular Pharmacology Branch, DTP, NCI, 2023)
